Consider 22 compounds from patent US20240368109A1, “ALLOSTERIC MODULATORS OF NICOTINIC ACETYLCHOLINE RECEPTORS” (MERCK SHARP & DOHME LLC, priority 2021, published 2024).

This test concerns the target human α7 nAChR (Homo sapiens (Human), UniProt P36544). Briefly: Automated patch-clamp electrophysiology functional assay (Assay A). The note with it: IonFlux HT whole-cell population patch, HEK cells expressing human α7/RIC-3, 40 μM acetylcholine. The format is cell-based. The method, then:
The α7 nAChR positive allosteric modulator (PAM) activity of the present compounds may be tested using assays known in the art. The α7 nAChR PAMs described herein have activities in an automated patch-clamp electrophysiology functional assay as described in the examples. The assay was performed using the IonFlux HT in a whole-cell, population patch configuration. See Golden et al. Assay Drug Dev. Technol. (2011) 9:608-619. The compounds were assessed for their ability to modulate the function of the human α7 nAChR stably expressed in a HEK cell line both in the presence, and in the absence of the natural α7 agonist acetylcholine. By performing a series of such measurements at different concentrations, the effective concentration of the α7 nAChR PAMs (EC50) was determined. See Spencer et al. Assay Drug Dev. Technol. (2012) 10:313-324.
Direct activation of α7 (agonism), and potentiation of acetylcholine-evoked α7 currents was determined as follows:
Automated Patch-Clamp Electrophysiology Functional Assay (Assay A)
Automated patch-clamp electrophysiology was performed using the IonFluxHT (Fluxion Biosciences Inc., San Francisco, CA) in the whole-cell, population patch configuration. Test compounds were assessed for their ability to modulate the function of the α7 nicotinic acetylcholine receptor both in the presence, and in the absence of the natural α7 agonist acetylcholine. A HEK cell line stably expressing both human RIC-3 and human α7 (PrecisION hnAChR α7/RIC-3, Eurofins Pharma, St. Charles, MO) was cultured in 175 cm^2 triple-layer tissue culture flasks to no more than 90% confluency in DMEM/F-12 growth media supplemented with 10% heat-inactivated fetal bovine serum, 1% non-essential amino acids, 0.625 μg/mL Puromycin, and 400 μg/mL Geneticin. Immediately prior to assay, cells were detached by first aspirating growth media, rinsing with Dulbecco's phosphate buffered saline, and then adding 10 mL of Accutase (Innovative Cell Technologies, San Diego, CA) to the flask and then incubating at 37° C. for 5 minutes. Detached cells were then recovered by the addition of 40 mL of CHO-serum-free media supplemented with 25 mM HEPES, and rocked gently in a 50 mL conical tube for 20 minutes prior to patch-clamp assay. After recovery, cells were pelleted by centrifugation at 1,000 RPM for 1 minute in a compact bench top centrifuge; recovery media was aspirated and cells were resuspended in external recording solution (150 mM NaCl, 5 mM KCl, 2 mM CaCl2), 1 mM MgCl2, 10 mM HEPES, 12 mM dextrose) to a density of 5.0×10^6 cells/mL. The cell suspension was added to the cell inlet wells on an IonFlux HT population patch plate which had previously been rinsed and primed with deionized H2O. Test compounds were serially diluted in DMSO and then resuspended to the final test concentration in external recording solution, with, or without 40 μM acetylcholine added to the external recording solution; test compounds were then transferred to the IonFlux HT population patch plate. Internal recording solution (110 mM TrisPO4, 28 mM TrisBase, 0.1 mM CaCl2), 2 mM MgCl2, 11 mM EGTA, 4 mM MgATP) was added to the internal recording solution inlet wells on the IonFlux HT patch plate previously loaded with cells and test compounds, and the plate loaded into the IonFlux HT instrument. A protocol was executed on the IonFlux HT to trap the cells, break into the cells, and establish the whole-cell recording configuration; cells were voltage-clamped at a holding potential of −60 mV for the duration of the experiment, all experiments were conducted at room temperature, and the IonFlux HT injection pressure was 8 psi for solution applications. Upon establishing the whole-cell configuration, external recording solution was perfused into the recording chambers for 120 seconds and then 40 μM acetylcholine was applied for 1 second and immediately washed off with external recording solution for 60 seconds. […]
For orientation: Patch clamp records ionic current or voltage across a cell membrane.

human α7 nAChR, sequence (P36544 23-502): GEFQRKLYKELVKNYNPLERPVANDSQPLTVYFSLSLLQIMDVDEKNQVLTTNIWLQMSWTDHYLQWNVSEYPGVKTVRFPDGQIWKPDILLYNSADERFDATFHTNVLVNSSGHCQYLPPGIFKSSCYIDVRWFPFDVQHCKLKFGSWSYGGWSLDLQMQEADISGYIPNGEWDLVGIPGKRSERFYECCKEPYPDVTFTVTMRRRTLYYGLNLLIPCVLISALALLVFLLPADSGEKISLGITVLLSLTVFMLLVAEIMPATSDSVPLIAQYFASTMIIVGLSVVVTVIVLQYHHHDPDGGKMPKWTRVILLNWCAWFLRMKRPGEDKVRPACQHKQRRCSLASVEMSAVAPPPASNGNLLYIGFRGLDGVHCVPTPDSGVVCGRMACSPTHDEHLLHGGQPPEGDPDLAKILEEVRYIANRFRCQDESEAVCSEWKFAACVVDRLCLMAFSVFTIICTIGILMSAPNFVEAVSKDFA

Consider `CCOc1ccc([C@H](CF)NC(=O)C2C3COc4ccc(F)cc4C32)cn1` (stereo partly drawn) [Example A15, exo-N-[(1R)-1-(6-ethoxypyridin-3-yl)-2-fluoroethyl]-6-fluoro-1,1a,2,7b-tetrahydrocyclopropa[c][1]benzopyran-1-carboxamide], for which the 50% effective concentration (EC50) (as a rule, the concentration that produces a half-maximal response) (electrophysiology EC50 values) is 1500 nM and the EC50 (potency class) lay within 500 to 5000 nM. With `COc1cc([C@H](CF)NC(=O)C2C3COc4ccc(F)cc4C32)ccn1` (stereo partly drawn) [Example A16, exo-6-fluoro-N-[(1R)-2-fluoro-1-(2-methoxypyridin-4-yl)ethyl]-1,1a,2,7b-tetrahydrocyclopropa[c][1]benzopyran-1-carboxamide], the EC50 (potency class) was in the range of 500 to 5000 nM. On to `COc1cccc(OC)c1CNC(=O)C1C2COc3ccccc3C21` (stereo not drawn) [Example A17, exo-N-[(2,6-dimethoxyphenyl)methyl]-1,1a,2,7b-tetrahydrocyclopropa[c][1]benzopyran-1-carboxamide], for which the EC50 reads like this: (electrophysiology EC50 values) 1100 nM; (potency class) 500 to 5000 nM. In the case of `CC(C)(NC(=O)C1C2COc3ccc(F)cc3C21)c1cccc(Cl)c1` (stereo not drawn) [Example A18, exo-N-[2-(3-chlorophenyl)propan-2-yl]-6-fluoro-1,1a,2,7b-tetrahydrocyclopropa[c][1]benzopyran-1-carboxamide], the EC50 runs as follows: (electrophysiology EC50 values) 2500 nM; (potency class) 500 to 5000 nM. Taken in the same sequence, the figures for `O=C(N[C@H]1CCOc2cc(F)c(F)cc21)C1C2COc3ccccc3C21` (stereo partly drawn) [Example A19, exo-N-[(4S)-6,7-difluoro-3,4-dihydro-2H-1-benzopyran-4-yl]-1,1a,2,7b-tetrahydrocyclopropa[c][1]benzopyran-1-carboxamide] were 1600 nM and 500 to 5000 nM.

As to `O=C(N[C@@H](C(F)F)C1CCCCC1)C1C2COc3ccccc3C21` (stereo partly drawn) [Example A20, exo-N-[(1R)-1-cyclohexyl-2,2-difluoroethyl]-1,1a,2,7b-tetrahydrocyclopropa[c][1]benzopyran-1-carboxamide], the EC50 (electrophysiology EC50 values) stood at 570 nM and the half-maximal effective concentration (EC50) (potency class) is 500 to 5000 nM. For `CCOc1ccc([C@H](COC)NC(=O)C2C3Oc4ccccc4C32)cc1` (stereo partly drawn) [Example B1, exo-N-[(1R)-1-(4-ethoxyphenyl)-2-methoxyethyl]-1a,6b-dihydro-1H-cyclopropa[b][1]benzofuran-1-carboxamide], the EC50 is, setting by setting: (electrophysiology EC50 values) 1200 nM; (potency class) 500 to 5000 nM. `CCOc1ccc([C@H](COC)NC(=O)C2C3Oc4ccccc4C32)cc1` (stereo partly drawn) [Example B2, exo-N-[(1R)-1-(4-ethoxyphenyl)-2-methoxyethyl]-1a,6b-dihydro-1H-cyclopropa[b][1]benzofuran-1-carboxamide]: the EC50 reads like this: (electrophysiology EC50 values) 1500 nM; (potency class) 500 to 5000 nM. Turning to `CCOc1ccc([C@H](COC)NC(=O)C2C3Oc4ccccc4C32)cc1` (stereo partly drawn) [Example B3, exo-N-[(1R)-1-(4-ethoxyphenyl)-2-methoxyethyl]-1a,6b-dihydro-1H-cyclopropa[b][1]benzofuran-1-carboxamide], the EC50 is 470 nM (electrophysiology EC50 values) and 100 to 500 nM (potency class). On the same counts, the results for `CCOc1ccc([C@H](COC)NC(=O)C2C3Oc4ccc(F)cc4C32)cc1` (stereo partly drawn) [Example B4, exo-N-[(1R)-1-(4-ethoxyphenyl)-2-methoxyethyl]-5-fluoro-1a,6b-dihydro-1H-cyclopropa[b][1]benzofuran-1-carboxamide] are 940 nM and 500 to 5000 nM. As for `CCOc1ccc([C@H](COC)NC(=O)C2C3Oc4ccc(F)cc4C32)cc1` (stereo partly drawn) [Example B5, exo-N-[(1R)-1-(4-ethoxyphenyl)-2-methoxyethyl]-5-fluoro-1a,6b-dihydro-1H-cyclopropa[b][1]benzofuran-1-carboxamide], the concentration for a half-maximal effect (EC50) reads like this: (electrophysiology EC50 values) 760 nM; (potency class) 500 to 5000 nM.

With `CCOc1ccc([C@H](COC)NC(=O)C2C3Oc4c(Cl)cccc4C32)cc1` (stereo partly drawn) [Example B6, exo-3-chloro-N-[(1R)-1-(4-ethoxyphenyl)-2-methoxyethyl]-1a,6b-dihydro-1H-cyclopropa[b][1]benzofuran-1-carboxamide], the EC50 (potency class) lay in the range of 100 to 500 nM. For `CCOc1ccc([C@H](COC)NC(=O)C2C3Oc4c(Cl)cccc4C32)cc1` (stereo partly drawn) [Example B7, exo-3-chloro-N-[(1R)-1-(4-ethoxyphenyl)-2-methoxyethyl]-1a,6b-dihydro-1H-cyclopropa[b][1]benzofuran-1-carboxamide], the EC50 by setting is: (electrophysiology EC50 values) 480 nM; (potency class) 100 to 500 nM. On the same counts, the results for `CCOc1ccc([C@H](COC)NC(=O)C2C3Oc4c(Br)cccc4C32)cc1` (stereo partly drawn) [Example B8, exo-3-bromo-N-[(1R)-1-(4-ethoxyphenyl)-2-methoxyethyl]-1a,6b-dihydro-1H-cyclopropa[b][1]benzofuran-1-carboxamide] are 280 nM and 100 to 500 nM. On the same counts, the results for `CCOc1ccc([C@H](COC)NC(=O)C2C3Oc4c(Br)cccc4C32)cc1` (stereo partly drawn) [Example B9, exo-3-bromo-N-[(1R)-1-(4-ethoxyphenyl)-2-methoxyethyl]-1a,6b-dihydro-1H-cyclopropa[b][1]benzofuran-1-carboxamide] are 390 nM and 100 to 500 nM. Turning to `CCOc1ccc([C@H](COC)NC(=O)C2C3Oc4ccc(-c5c(C)noc5C)cc4C32)cc1` (stereo partly drawn) [Example B10, exo-5-(3,5-dimethyl-1,2-oxazol-4-yl)-N-[(1R)-1-(4-ethoxyphenyl)-2-methoxyethyl]-1a,6b-dihydro-1H-cyclopropa[b][1]benzofuran-1-carboxamide], the concentration giving a half-maximal response (EC50) is 2800 nM (electrophysiology EC50 values) and 500 to 5000 nM (potency class). As for `CCOc1ccc([C@H](COC)NC(=O)C2C3Oc4ccc(-c5cncnc5)cc4C32)cc1` (stereo partly drawn) [Example B11, exo-N-[(1R)-1-(4-ethoxyphenyl)-2-methoxyethyl]-5-(pyrimidin-5-yl)-1a,6b-dihydro-1H-cyclopropa[b][1]benzofuran-1-carboxamide], for the setting “potency class”, the half-maximal effective concentration (EC50) lay in the range of 5000 to 50000 nM. As for `CCOc1ccc([C@H](COC)NC(=O)C2C3c4ccccc4N(C(C)=O)C23)cc1` (stereo partly drawn) [Example B12, exo-2-acetyl-N-[(1R)-1-(4-ethoxyphenyl)-2-methoxyethyl]-1,1a,2,6b-tetrahydrocyclopropa[b]indole-1-carboxamide], the half-maximal effective concentration (EC50) was 1300 nM (electrophysiology EC50 values) and 500 to 5000 nM (potency class). Regarding `CCOc1ccc([C@H](COC)NC(=O)[C@@H]2[C@H]3Oc4ccnc(OC)c4[C@H]32)cc1` [Example B13, exo-N-[(1R)-1-(4-ethoxyphenyl)-2-methoxyethyl]-6-methoxy-1a,6b-dihydro-1H-cyclopropa[4,5]furo[3,2-c]pyridine-1-carboxamide], the EC50 was 1100 nM (electrophysiology EC50 values) and 500 to 5000 nM (potency class). In the case of `CCOc1ccc([C@H](COC)NC(=O)C2C3Oc4ccc(C#N)cc4C32)cc1` (stereo partly drawn) [Example B14, exo-5-cyano-N-[(1R)-1-(4-ethoxyphenyl)-2-methoxyethyl]-1a,6b-dihydro-1H-cyclopropa[b][1]benzofuran-1-carboxamide], the EC50 (potency class) was 500 to 5000 nM.

In the case of `CCOc1ccc([C@H](COC)NC(=O)C2C3Oc4cc(Br)ccc4C32)cc1` (stereo partly drawn) [Example B15, exo-4-bromo-N-[(1R)-1-(4-ethoxyphenyl)-2-methoxyethyl]-1a,6b-dihydro-1H-cyclopropa[b][1]benzofuran-1-carboxamide], the concentration for a half-maximal effect (EC50) (electrophysiology EC50 values) came to 480 nM and the concentration for a half-maximal effect (EC50) (potency class) fell in the range of 100 to 500 nM.

`CCOc1ccc([C@H](COC)NC(=O)C2C3Oc4ccc(C#N)cc4C32)cc1` (stereo partly drawn) [Example B16, exo-5-cyano-N-[(1R)-1-(4-ethoxyphenyl)-2-methoxyethyl]-1a,6b-dihydro-1H-cyclopropa[b][1]benzofuran-1-carboxamide]: the EC50 (electrophysiology EC50 values) was determined as 4100 nM.
